Laboratory results taken from patent US9657071B2, “IgE peptide vaccine” (NIPPON ZENYAKU KOGYO CO., LTD., priority 2012, dated 2017).

Key:
human IgE [1] = experiment: Treatment experiment, dogs artificially sensitized with Dermatophagoides farinae: IgG antibody against human IgE (ELISA); format: in vivo; conditions: beagles artificially sensitized with Dermatophagoides farinae, s.c. 1 mg five times
Method: Human IgE (Athens Research And Technology, Inc.; IgE, human Myeloma Plasma) was prepared at 1 μg/mL in an immobilization buffer (0.05 M carbonate buffer, pH 9.6), then added at a concentration of 100 μL/well to an ELISA plate, and left overnight at 4° C. The immobilization plate was washed once with PBS-T (0.05%). A blocking solution (4× Block Ace, Snow Brand Milk Products Co., Ltd.; UK-B80) was added thereto at a concentration of 200 μL/well. The plate was blocked by incubation at 37° C. for 1.5 hours. The serum was diluted 1000-fold with a diluent (PBS-T:Block Ace=9:1) and used. The plate was reacted with the serum at 37° C. for 1.5 hours and washed three times with PBS-T (0.05%). An anti-dog IgG antibody (Sheep anti-Dog IgG HRP, Bethyl Laboratories, Inc.; A40-118P) was diluted 2000-fold with a diluent and added thereto as a secondary antibody at a concentration of 100 μL/well. After reaction at 37° C. for 1.5 hours, the plate was washed three times with PBS-T (0.05%). […] Then, the measurement was performed using a plate reader (Bio-Rad Laboratories, Inc.; model 680) (dual: measurement: 450 nm, control: 570 nm). […]
Evaluation: serum was collected, and an IgG antibody against human IgE was assayed by ELISA. […] The IgE antibody against Dermatophagoides farinae was evaluated by ELISA. […]

human IgE [2] = experiment: IgE-specific IgG in serum of dogs given IgE peptide vaccine (ELISA, human IgE immobilized); format: in vivo; conditions: dog
Method: The peptide used was MOUSE CH3-4-17-11 (mouse CH3 region amino acid sequence) (SEQ ID NO: 27). 2 mL (500 μg) of a solution of the peptide (concentration: 250 μg/mL) and 2 mL of a complete adjuvant (DIFCO ADJUVANT COMPLETE FREUND, Becton, Dickinson and Company Japan) were dispensed to microtubes. Liquids (4 mL per animal) emulsified by shaking for 15 minutes in a high-speed shaker were used as IgE peptide vaccines.
The animals used were 1 male and 7 females of 5- to 7-month-old beagles and were divided into an administration group (n=4; 08-33, 08-42, 08-43, and 08-44) and a non-administration group (n=4; 08-45, 08-46, 08-47, and 08-48).
The peptide was administered at days 0 (test start date), 14, and 28 in the first course and further at days 106 and 117 in the second course. The test substance was subcutaneously administered to the necks of the 4 animals in the administration group. The non-administration group was untreated. […]
Each antigenic protein (MOUSE CH3-4-17-11 for peptide-specific IgG assay, and human IgE for IgE-specific IgG assay) was prepared at 1 μg/mL in an immobilization buffer (0.05 M carbonate buffer, pH 9.6), then added at a concentration of 100 μL/well to an ELISA plate, and left overnight at 4° C. […] Then, the measurement was performed using a plate reader (Bio-Rad Laboratories, Inc.; model 680) (dual: measurement: 450 nm, control: 570 nm). […]

Sequence | level of the IgG antibody against IgE (human IgE [1]) | IgE-specific IgG in serum, administration group versus non-administration group (human IgE [2]; day 77, p<0.05) | level of IgG antibody against IgE (human IgE [2]; summary of FIG. 6)
KKTSVSASQWYTKHHNNATT (listed as Mus musculus) [M4-7-11] | confirmed to elevate |  | 
QEKKTSVSASQWYTKHHNNATTSIT (listed as Mus musculus) [MOUSE CH3-4-17-11] |  | significantly higher | increased
